Data as given in patent publication US11420961B2, “Heterocyclic compounds” (Hoffmann-La Roche Inc., priority 2017, dated 2022).

Each molecule was assayed against T1, MAGL (recombinant wild-type) (Homo sapiens, UniProt Q99685) (assay: 4-NPA assay: MAGL inhibitory activity by hydrolysis of 4-nitrophenylacetate, absorbance at 405 nm). Conditions: 4-NPA assay (values without footnote [a]).
T1 sequence (Q99685 1-303): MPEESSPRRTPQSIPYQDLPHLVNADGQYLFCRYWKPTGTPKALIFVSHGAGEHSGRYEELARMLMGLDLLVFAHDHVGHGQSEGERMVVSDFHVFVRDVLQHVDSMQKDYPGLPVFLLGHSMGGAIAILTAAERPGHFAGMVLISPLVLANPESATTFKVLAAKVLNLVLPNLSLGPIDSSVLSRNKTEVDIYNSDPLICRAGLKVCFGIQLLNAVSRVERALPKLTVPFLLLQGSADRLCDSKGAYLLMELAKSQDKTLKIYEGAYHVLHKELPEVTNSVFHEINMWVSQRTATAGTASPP
Assay type: biochemical
Procedure: Compounds were profiled for MAGL inhibitory activity by measuring the enzymatic activity of MAGL by following the hydrolysis of 4-nitorphenylacetate resulting in 4-nitrophenol, which absorbs at 405-412 nm (G. G. Muccioli, G. Labar, D M. Lambert, Chem. Bio. Chem. 2008, 9, 2704-2710). This assay is hereinafter abbreviated “4-NPA assay”.
The 4-NPA assay was carried out in 384 well assay plates (black with clear bottom, non-binding surface treated, Corning Ref. 3655) in a total volume of 40 μL. Compound dilutions were made in 100% DMSO (VWR Chemicals 23500.297) in a polypropylene plate in 3-fold dilution steps to give a final concentration range in the assay from 25 μM to 1.7 nM. 1 μL compound dilutions (100% DMSO) were added to 19 μL MAGL (recombinant wild-type) in assay buffer (50 mM TRIS (GIBCO, 15567-027), 1 mM EDTA (Fluka, 03690-100 ml)). The plate was shaked for 1 min at 2000 rpm (Variomag Teleshake) and then incubated for 15 min at RT. To start the reaction, 20 μL 4-Nitrophenlyacetate (Sigma N-8130) in assay buffer with 6% EtOH was added. The final concentrations in the assay were 1 nM MAGL and 300 μM 4-Nitrophenylacetate. After shaking (1 min, 2000 rpm) and 5 min incubation at RT, the absorbance at 405 nm was measured for a first time (Molecular Devices, SpectraMax Paradigm). A second measurement was then done after incubation for 80 min at RT. From the two measurements, the slope was calculated by substracting the first from the second measurement.

`O=C1COc2ccc(C(=O)N3CCC(c4n[nH]c5cc(F)ccc45)CC3)cc2N1` [Example 43, 6-[4-(6-fluoro-1H-indazol-3-yl)piperidine-1-carbonyl]-4H-1,4-benzoxazin-3-one] and `O=C1COc2ccc(C(=O)N3CCC(c4noc5ccc(F)cc45)CC3)cc2N1` [Example 52, 6-[4-(5-fluoro-1,2-benzoxazol-3-yl)piperidine-1-carbonyl]-4H-1,4-benzoxazin-3-one] are within 1.5-fold of each other in IC50: 180 nM for the first, 140 nM for the second.

First: Cc1[nH]c2ccc(Cl)cc2c1C1CCN(C(=O)c2ccc3c(c2)NC(=O)CO3)CC1 [Example 47, 6-[4-(5-chloro-2-methyl-1H-indol-3-yl)piperidine-1-carbonyl]-4H-1,4-benzoxazin-3-one]
Second: Cn1cc(C2CCN(C(=O)c3ccc4c(c3)NC(=O)CO4)CC2)c2ccc(Cl)cc21 [Example 30, 6-[4-(6-chloro-1-methylindol-3-yl)piperidine-1-carbonyl]-4H-1,4-benzoxazin-3-one]
The IC50 of the first is 2.6-fold higher: 59 nM for the first, 22.9 nM for the second. The second is the more potent here.

Compared with `O=C1COc2ccc(C(=O)N3CCC([C@@H](c4ccc(F)cc4)c4cccc(OCCOCCF)c4)CC3)cc2N1` (single isomer, unassigned) [Example 95, 6-[4-[(R or S)-[3-[2-(2-fluoroethoxy)ethoxy]phenyl]-(4-fluorophenyl)methyl]piperidine-1-carbonyl]-4H-1,4-benzoxazin-3-one], `O=C1COc2ccc(C(=O)N3CCC(C(c4ccc(F)cc4)c4ccc(OCCOCCF)cc4)CC3)cc2N1` (single isomer, unassigned) [Example 107, 6-[4-[(R or S)-[4-[2-(2-Fluoroethoxy)ethoxy]phenyl]-(4-fluorophenyl)methyl]piperidine-1-carbonyl]-4H-1,4-benzoxazin-3-one] is 7-fold lower in IC50: 1.4 nM for the first, 0.2 nM for the second. The second is the more potent here.

Compared with `O=C1COc2ccc(C(=O)N3CCC(C4(c5ccccc5)CC4)CC3)cc2N1` [Example 55, 6-[4-(1-phenylcyclopropyl)piperidine-1-carbonyl]-4H-1,4-benzoxazin-3-one], `O=C1COc2ccc(C(=O)N3CCC(c4nnc(-c5ccccc5)o4)CC3)cc2N1` [Example 48, 6-[4-(5-phenyl-1,3,4-oxadiazol-2-yl)piperidine-1-carbonyl]-4H-1,4-benzoxazin-3-one] is 8.1-fold higher in IC50: 68 nM for the first, 549 nM for the second. The first is the more potent here.

First: Cc1cccc([C@H](c2ccccc2)C2CCN(C(=O)c3ccc4c(c3)NC(=O)CO4)CC2)c1 (single isomer, unassigned) [Example 16]
Second: Cc1cccc([C@@H](c2ccccc2)C2CCN(C(=O)c3ccc4c(c3)NC(=O)CO4)CC2)c1 (single isomer, unassigned) [Example 17]
The IC50 of the first is 2.5-fold higher: 0.5 nM for the first, 0.2 nM for the second. The second is the more potent here.

Compared with `O=C1COc2ccc(C(=O)N3CCN(C(c4ccc(F)cc4)c4ccc(F)cc4)CC3)cc2N1` [Example 84, 6-[4-[bis(4-fluorophenyl)methyl]piperazine-1-carbonyl]-4H-1,4-benzoxazin-3-one], `O=C1COc2ccc(C(=O)N3CCC(C(c4ccc(F)cc4)c4ccc(F)cc4)CC3)cc2N1` [Example 3, 6-[4-[Bis(4-fluorophenyl)methyl]piperidine-1-carbonyl]-4H-1,4-benzoxazin-3-one] is 2.9-fold lower in IC50: 5.83 nM for the first, 2.03 nM for the second.

Compared with `O=C1COc2ccc(C(=O)N3CCC([C@@H](c4ccccc4)c4cccc(OCCF)c4)CC3)cc2N1` [Example 81, 6-[4-[(S)-[3-(2-fluoroethoxy)phenyl]-phenyl-methyl]piperidine-1-carbonyl]-4H-1,4-benzoxazin-3-one], `O=C1COc2ccc(C(=O)N3CCC(C(c4ccccc4)c4cccc(OCCF)c4)CC3)cc2N1` (centres unmarked) [Example 72, 6-[4-[[3-(2-fluoroethoxy)phenyl]-phenyl-methyl]piperidine-1-carbonyl]-4H-1,4-benzoxazin-3-one] is 2-fold lower in IC50: 1.1 nM for the first, 0.55 nM for the second. The second is the more potent here.

Going from `COc1ccc(C(c2ccncc2)C2CCN(C(=O)c3ccc4c(c3)NC(=O)CO4)CC2)cc1OC` (single isomer, unassigned) [Example 126, 6-[4-[(R or S)-(3,4-Dimethoxyphenyl)-(4-pyridyl)methyl]piperidine-1-carbonyl]-4H-1,4-benzoxazin-3-one] to `COc1ccc([C@H](c2ccccc2)C2CCN(C(=O)c3ccc4c(c3)NC(=O)CO4)CC2)cc1OC` (single isomer, unassigned) [Example 8], the IC50 falls from 8.5 nM to 4 nM (2.1-fold). The second is the more potent here.

Going from `Cc1ccc(C(c2ccc(F)cc2)C2CCN(C(=O)c3ccc4c(c3)NC(=O)CO4)CC2)cc1` (single isomer, unassigned) [Example 113, 6-[4-[(R or S)-(4-Fluorophenyl)-(p-tolyl)methyl]piperidine-1-carbonyl]-4H-1,4-benzoxazin-3-one] to `O=C1COc2ccc(C(=O)N3CCC([C@H](c4ccccc4)c4ccc(F)cc4)CC3)cc2N1` (single isomer, unassigned) [Example 7], the IC50 rises from 0.4 nM to 0.9 nM (2.2-fold).

First: Cn1cc(C2CCN(C(=O)c3cc4c(cc3F)OCC(=O)N4)CC2)c2cc(Cl)c(F)cc21 [Example 26, 6-[4-(5-chloro-6-fluoro-1-methylindol-3-yl)piperidine-1-carbonyl]-7-fluoro-4H-1,4-benzoxazin-3-one]
Second: Cn1nc(C2CCN(C(=O)c3ccc4c(c3)NC(=O)CO4)CC2)c2ccc(Cl)cc21 [Example 39, 6-[4-(6-chloro-1-methylindazol-3-yl)piperidine-1-carbonyl]-4H-1,4-benzoxazin-3-one]
The IC50 of the first is 47-fold lower: 1.8 nM for the first, 84 nM for the second. The first is the more potent here.

`O=C1COc2cc(F)c(C(=O)N3CCC(C(c4ccccc4)c4ccccc4)CC3)cc2N1` [Example 1, 6-(4-Benzhydrylpiperidine-1-carbonyl)-7-fluoro-4H-1,4-benzoxazin-3-one] and `Cc1ccc([C@@H](c2ccccc2)C2CCN(C(=O)c3ccc4c(c3)NC(=O)CO4)CC2)cc1` (single isomer, unassigned) [Example 15] are within 1.5-fold of each other in IC50: 0.95 nM for the first, 1.1 nM for the second.

First: O=C1COc2ccc(C(=O)N3CCC(C(c4ccc(F)cc4)c4ccnc(F)c4)CC3)cc2N1 (single isomer, unassigned) [Example 111, 6-[4-[(R or S)-(4-Fluorophenyl)-(2-fluoro-4-pyridyl)methyl]piperidine-1-carbonyl]-4H-1,4-benzoxazin-3-one]
Second: COc1ccc(C(c2ccccc2)C2CCN(C(=O)c3ccc4c(c3)NC(=O)CO4)CC2)cc1 (centres unmarked) [Example 58, 6-[4-[(4-methoxyphenyl)-phenyl-methyl]piperidine-1-carbonyl]-4H-1,4-benzoxazin-3-one]
The IC50 of the first is 1.9-fold higher: 1.5 nM for the first, 0.8 nM for the second.

`COc1cc(C(=O)N2CCC(C(c3ccccc3)c3ccccc3)CC2)cc2c1CCC(=O)N2` [Example 101, 7-(4-Benzhydrylpiperidine-1-carbonyl)-5-methoxy-3,4-dihydro-1H-quinolin-2-one] and `O=C1COc2ccc(C(=O)N3CCN(C(c4ccccc4)c4ccccc4)CC3)cc2N1` [Example 83, 6-(4-benzhydrylpiperazine-1-carbonyl)-4H-1,4-benzoxazin-3-one] are within 1.5-fold of each other in IC50: 2.7 nM for the first, 3.09 nM for the second.

Going from `O=C1COc2ccc(C(=O)N3CCN(c4ccc(C(F)(F)F)cn4)CC3)cc2N1` [Example 90, 6-[4-[5-(trifluoromethyl)-2-pyridyl]piperazine-1-carbonyl]-4H-1,4-benzoxazin-3-one] to `O=C1COc2ccc(C(=O)N3CCC(C4(c5ccc(Br)cc5)OCCO4)CC3)cc2N1` [Example 54, 6-[4-[2-(4-bromophenyl)-1,3-dioxolan-2-yl]piperidine-1-carbonyl]-4H-1,4-benzoxazin-3-one], the IC50 falls from 2220 nM to 7.3 nM (300-fold).

`O=C1COc2ccc(C(=O)N3CCC(c4cn(Cc5cccc(Cl)c5)c5ccccc45)CC3)cc2N1` [Example 35, 6-[4-[l-[(3-chlorophenyl)methyl]indol-3-yl]piperidine-1-carbonyl]-4H-1,4-benzoxazin-3-one] was tested, and the IC50 was 37 nM.
